These results are taken from PubChem BioAssay (NCI).

Holding throughout (assay): growth of human tumour cells (NCI), 48 h
Assay [1] concerns HS 578T breast.
In assay [2] the test system is HOP-62 NSCLC.
Assay [3] relates to SN12C renal.
Assay [4] deals with DU-145 prostate.
In assay [5] the test system is OVCAR-3 ovarian.
Assay [6] concerns NCI-H460 lung.
Assay [7] has as its system HCT-116 colon.
Assay [8] has as its system T-47D breast.
In assay [9] the test system is SK-MEL-5 melanoma.
In assay [10] the test system is SF-539 CNS.
The test system of assay [11] is TK-10 renal.
Assay [12] relates to SW-620 colon.
Assay [13] deals with UACC-257 melanoma.
For assay [14], the system named is EKVX NSCLC.
The test system of assay [15] is OVCAR-8 ovarian.

Each structure is given as a SMILES string.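 Cells were grown in 96-well plates and exposed to each compound for 48 hours at five concentrations; endpoints were interpolated linearly between bracketing concentrations, or set to the highest concentration if not reached. Definition used: TGI = concentration required for complete inhibition of growth.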

`COc1ccc(C(=O)c2sc(N(C)C)nc2-c2ccccc2)cc1`: the TGI in assay [1] was more than 100 µM; in [2], more than 100 µM; in assay [3], more than 100 µM; in [4], more than 100 µM; in assay [5], 48.6 µM; in [6], 52.9 µM. For the same molecule, the TGI in assay [7], in assay [8], in [9], in assay [10], in assay [11] and in [12] was more than 100 µM throughout. Besides, the TGI in [13] was determined as 86.1 µM.

Take `CN1CCN(c2ccc3[nH]c(-c4cc(O)c5c(nc(CO)n5C)c4O)nc3n2)CC1`: the TGI in [1] was more than 100 µM; in assay [2], more than 100 µM; in assay [3] it was 36.8 µM; in [4] it was more than 100 µM; in assay [5] it was more than 100 µM; in assay [6], more than 100 µM. In addition, the TGI was more than 100 µM in [7]; more than 100 µM in assay [8]; 44 µM in [10]; 85.8 µM in assay [14]; more than 100 µM in assay [15]; more than 100 µM in assay [12]. Further, the TGI in assay [13] was more than 100 µM.

Turning to `C/C(Cl)=N/OC(=O)Nc1ccc(S(N)(=O)=O)c(C)c1`, the TGI is more than 79.4 µM in assay [1]; 34.9 µM in assay [2]; 26.8 µM in assay [3]; 30.5 µM in assay [4]; 8.9 µM in [5]; more than 100 µM in assay [6]. Moreover, the TGI in assay [7] is 25 µM; in assay [8], 9.98 µM; in assay [9] it was 26.1 µM; in assay [11] it was 17.9 µM; in assay [14], 13 µM; in [15], more than 56.2 µM. For the same molecule, the values for the TGI in assay [12] and in assay [13] were 3.27 µM and 27.9 µM, respectively.

On to `COc1ccc(/C=C2\CCC(C)C3C2=NN(c2ccccc2)C3c2ccc(OC)c(OC)c2)cc1OC` (stereo unspecified), for which the TGI in assay [1] was more than 100 µM; in [3], 17.6 µM; in assay [4], 12.7 µM; in [5] it was more than 100 µM; in assay [7], 5.5 µM; in assay [8], 9.08 µM. The TGI in [9] was 9.68 µM; in [10], 7.49 µM; in assay [11], 6.93 µM; in [14], 6.9 µM; in assay [15], 25.3 µM; in assay [12] it was more than 100 µM. Besides, the TGI in assay [13] is 9.74 µM.

On to `C[N+](C)(C)CCCSc1nc2ccccc2[nH]1`, for which the TGI in assay [1], in assay [2], in assay [3], in assay [4], in assay [5] and in [6] was more than 100 µM in each case. Also, the TGI in assay [7], in assay [8], in [9], in assay [11], in [14] and in assay [15] was more than 100 µM each time. In addition, the TGI in assay [12] and in assay [13] was more than 100 µM in each case.

Consider `CCOC(=O)c1cc2c([nH]1)c(O)cc1c2ccn1Cc1ccccc1`, for which the TGI is 77.4 µM in assay [1]; 38.7 µM in [2]; 36.6 µM in assay [3]; 34.3 µM in [4]; 31.6 µM in assay [5]; 34.7 µM in assay [6]. Moreover, the TGI in assay [7] stood at 23.8 µM; in assay [8], 11.9 µM; in [9], 24.5 µM; in [10], 40.2 µM; in assay [14], 26.7 µM; in assay [15], 33.4 µM. Moreover, the TGI was 40.6 µM in assay [12] and 34.8 µM in assay [13].

Consider `N#Cc1c(=O)n(-c2ccccc2)c(O)c2c(N)n[nH]c12`, for which the TGI in assay [1], in assay [3], in [4], in assay [5], in [6] and in assay [7] was more than 100 µM throughout. Also, the TGI in assay [8], in [9], in [10], in assay [11], in assay [14] and in [15] was more than 100 µM throughout. In addition, the TGI in assay [12] and in assay [13] was more than 100 µM in each case.

Consider `O=C(O)CCC(=O)Nc1ccc2ccccc2c1`, for which the TGI in [1], in [2], in assay [3], in [4], in [5] and in [6] was more than 100 µM each time. The TGI in assay [7], in assay [8], in assay [9], in [11], in [14] and in assay [15] was more than 100 µM in each case. Further, the TGI in assay [12] and in [13] was more than 100 µM in each case.

Turning to `O=C1CCC2(c3ccccc3)Nc3ccncc3N12` (stereo unspecified), the TGI in assay [1], in assay [3], in [4], in assay [5], in [6] and in assay [7] was more than 10 µM in each case. Moreover, the TGI in assay [8], in assay [10], in assay [11], in [14], in [15] and in assay [12] was more than 10 µM throughout. This molecule returned a TGI in assay [13] of more than 10 µM.

With `OC1(c2ccccc2)C2CCN(CC2)C1CN1CCOCC1` (stereo unspecified), the TGI in [2], in assay [3], in assay [4], in assay [5], in assay [6] and in assay [7] was more than 100 µM each time. The TGI in assay [8], in assay [9], in [10], in [11], in [14] and in assay [15] was more than 100 µM throughout. Moreover, the TGI in [12] and in [13] was more than 100 µM each time.
